The values that follow come from PMC6691809 (Mycobiology, 2019).

Test [1] addresses neuraminidase from recombinant H3N2 influenza A virus (Influenza A virus, UniProt P03482). Description: biochemical. The test is classed as biochemical.
Test [2] has as its target neuraminidase from recombinant H5N1 influenza A virus (Influenza A virus, UniProt Q6DPL2). Nature of the test: biochemical.

As usually defined, the Ki is a measure of affinity in units of concentration, obtained from inhibition or displacement. Usually IC50 stands for the concentration at which inhibition is half-maximal.

Sequence of neuraminidase from recombinant H3N2 influenza A virus (P03482 whole entry): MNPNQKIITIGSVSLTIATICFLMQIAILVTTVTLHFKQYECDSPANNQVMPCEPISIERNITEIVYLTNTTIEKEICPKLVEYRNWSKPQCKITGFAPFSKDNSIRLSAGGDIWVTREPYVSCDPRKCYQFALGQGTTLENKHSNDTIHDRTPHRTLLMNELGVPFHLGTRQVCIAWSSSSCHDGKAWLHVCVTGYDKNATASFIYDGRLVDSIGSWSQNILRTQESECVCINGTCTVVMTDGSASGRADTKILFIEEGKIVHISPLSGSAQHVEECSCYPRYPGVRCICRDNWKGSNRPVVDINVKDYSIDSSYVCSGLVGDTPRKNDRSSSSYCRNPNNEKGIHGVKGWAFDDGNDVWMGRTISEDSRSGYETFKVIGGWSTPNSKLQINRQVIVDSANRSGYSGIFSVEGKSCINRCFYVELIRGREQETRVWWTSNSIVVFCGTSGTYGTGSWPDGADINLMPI
Sequence of neuraminidase from recombinant H5N1 influenza A virus (Q6DPL2 whole entry, looked up): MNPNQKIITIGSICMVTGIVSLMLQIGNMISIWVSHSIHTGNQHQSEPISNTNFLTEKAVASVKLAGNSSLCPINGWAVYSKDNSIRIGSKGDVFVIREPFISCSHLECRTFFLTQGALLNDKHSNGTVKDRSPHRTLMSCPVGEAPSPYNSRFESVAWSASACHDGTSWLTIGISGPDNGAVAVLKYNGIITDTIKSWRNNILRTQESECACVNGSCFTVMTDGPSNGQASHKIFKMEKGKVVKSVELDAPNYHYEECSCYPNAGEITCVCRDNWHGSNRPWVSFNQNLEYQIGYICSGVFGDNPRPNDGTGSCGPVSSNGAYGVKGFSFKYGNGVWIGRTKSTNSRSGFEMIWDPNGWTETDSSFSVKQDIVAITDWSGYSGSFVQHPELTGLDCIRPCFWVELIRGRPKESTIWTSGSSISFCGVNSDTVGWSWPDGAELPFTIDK

Take `C/C=C/C1=CC2=C(CO1)C(=O)[C@](C)(O)[C@H](OC(=O)c1c(C)cc(O)cc1O)C2` [Compound 3, comazaphilone D]: in test [1], the Inhibition type entry is “Non-competitive (35.3)” and the inhibitory constant (Ki) stood at 35.3 µM. Also, the IC50 in test [1] (IC50 H3N2 neuraminidase) stood at 30.9 ± 0.1 µM. Further, the IC50 in test [2] is 35.7 ± 0.2 µM.
